We go through four compounds from ChEMBL document CHEMBL5465560, “Selectivity Literature for EUbOPEN Chemogenomic Library” (2024).

Experiment [1] concerns the target T1, Mitogen-activated protein kinase kinase kinase 19 (Homo sapiens) (UniProt Q56UN5).
T1 sequence (whole entry): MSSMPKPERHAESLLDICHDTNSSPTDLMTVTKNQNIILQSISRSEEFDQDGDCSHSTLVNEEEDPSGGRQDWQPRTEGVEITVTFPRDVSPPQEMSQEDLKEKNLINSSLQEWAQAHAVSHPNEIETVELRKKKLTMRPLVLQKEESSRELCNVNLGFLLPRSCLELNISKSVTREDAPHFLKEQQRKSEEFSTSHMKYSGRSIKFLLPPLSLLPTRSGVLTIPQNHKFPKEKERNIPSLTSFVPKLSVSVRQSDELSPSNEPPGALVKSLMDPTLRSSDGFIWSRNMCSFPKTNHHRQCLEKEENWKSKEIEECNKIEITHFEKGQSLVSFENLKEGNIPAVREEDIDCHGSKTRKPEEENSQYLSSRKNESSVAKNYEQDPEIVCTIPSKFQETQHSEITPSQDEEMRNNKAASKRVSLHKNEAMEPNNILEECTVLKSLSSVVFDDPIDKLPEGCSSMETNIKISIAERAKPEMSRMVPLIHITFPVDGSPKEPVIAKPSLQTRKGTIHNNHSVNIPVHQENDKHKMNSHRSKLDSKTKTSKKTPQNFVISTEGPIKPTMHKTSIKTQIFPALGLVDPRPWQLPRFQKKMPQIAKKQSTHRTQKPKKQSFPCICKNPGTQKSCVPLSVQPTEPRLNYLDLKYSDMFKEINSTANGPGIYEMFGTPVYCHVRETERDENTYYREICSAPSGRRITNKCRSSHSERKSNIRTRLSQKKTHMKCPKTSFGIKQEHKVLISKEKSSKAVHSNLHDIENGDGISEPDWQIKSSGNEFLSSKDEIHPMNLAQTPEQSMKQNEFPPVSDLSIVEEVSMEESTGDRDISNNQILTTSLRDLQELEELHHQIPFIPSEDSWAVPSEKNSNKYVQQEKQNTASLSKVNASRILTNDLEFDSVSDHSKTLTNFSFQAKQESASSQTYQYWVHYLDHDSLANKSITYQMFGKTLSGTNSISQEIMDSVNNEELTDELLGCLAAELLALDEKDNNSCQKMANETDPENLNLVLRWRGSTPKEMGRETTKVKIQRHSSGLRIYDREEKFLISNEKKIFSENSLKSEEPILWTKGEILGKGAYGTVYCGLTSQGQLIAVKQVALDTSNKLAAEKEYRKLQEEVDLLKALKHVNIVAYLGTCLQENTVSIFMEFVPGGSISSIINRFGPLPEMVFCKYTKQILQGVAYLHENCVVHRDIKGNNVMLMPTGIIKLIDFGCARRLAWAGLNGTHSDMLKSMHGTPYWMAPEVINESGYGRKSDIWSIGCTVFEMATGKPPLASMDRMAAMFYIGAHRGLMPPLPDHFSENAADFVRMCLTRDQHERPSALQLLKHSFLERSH
Particulars: at 10 µM.

Experiment [2] deals with T2, Serine/threonine-protein kinase D3 (Homo sapiens) (UniProt O94806).
T2 sequence (whole entry): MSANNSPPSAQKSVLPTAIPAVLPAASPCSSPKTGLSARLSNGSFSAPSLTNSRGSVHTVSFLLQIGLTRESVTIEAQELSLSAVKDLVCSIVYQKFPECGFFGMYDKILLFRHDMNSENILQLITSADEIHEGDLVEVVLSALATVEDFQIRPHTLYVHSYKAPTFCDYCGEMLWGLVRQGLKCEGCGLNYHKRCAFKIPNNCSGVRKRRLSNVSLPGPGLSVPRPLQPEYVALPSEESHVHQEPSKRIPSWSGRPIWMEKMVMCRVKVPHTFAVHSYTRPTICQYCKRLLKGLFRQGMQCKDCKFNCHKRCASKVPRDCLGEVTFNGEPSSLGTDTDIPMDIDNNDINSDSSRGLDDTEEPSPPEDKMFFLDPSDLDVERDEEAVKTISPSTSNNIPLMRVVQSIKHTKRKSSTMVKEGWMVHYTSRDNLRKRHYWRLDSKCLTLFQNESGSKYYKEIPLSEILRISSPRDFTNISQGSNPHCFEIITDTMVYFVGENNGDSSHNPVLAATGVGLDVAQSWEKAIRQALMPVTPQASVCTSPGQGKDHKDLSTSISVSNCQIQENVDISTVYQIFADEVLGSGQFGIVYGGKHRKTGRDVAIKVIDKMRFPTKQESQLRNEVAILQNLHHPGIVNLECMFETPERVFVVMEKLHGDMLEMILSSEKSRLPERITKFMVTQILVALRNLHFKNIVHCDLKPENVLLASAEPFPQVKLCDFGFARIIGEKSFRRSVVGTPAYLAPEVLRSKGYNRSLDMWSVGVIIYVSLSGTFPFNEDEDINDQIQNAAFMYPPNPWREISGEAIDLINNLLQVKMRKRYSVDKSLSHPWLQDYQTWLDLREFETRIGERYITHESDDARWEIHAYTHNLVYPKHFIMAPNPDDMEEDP
The experiment in a line: Selectivity interaction (ActivX KiNativ screen (kinase selectivity in THP-1 cell lysates)) EUB0000639a PRKD3. In kind it is subcellular. Particulars: lysate, at 5 µM.

The target in experiment [3] is Phosphatidylinositol 4-kinase alpha (Homo sapiens, UniProt P42356). Description: Selectivity interaction (Kinase panel (radiometric assay)) EUB0000877a PI4KA.
Chain of Phosphatidylinositol 4-kinase alpha (P42356 whole entry): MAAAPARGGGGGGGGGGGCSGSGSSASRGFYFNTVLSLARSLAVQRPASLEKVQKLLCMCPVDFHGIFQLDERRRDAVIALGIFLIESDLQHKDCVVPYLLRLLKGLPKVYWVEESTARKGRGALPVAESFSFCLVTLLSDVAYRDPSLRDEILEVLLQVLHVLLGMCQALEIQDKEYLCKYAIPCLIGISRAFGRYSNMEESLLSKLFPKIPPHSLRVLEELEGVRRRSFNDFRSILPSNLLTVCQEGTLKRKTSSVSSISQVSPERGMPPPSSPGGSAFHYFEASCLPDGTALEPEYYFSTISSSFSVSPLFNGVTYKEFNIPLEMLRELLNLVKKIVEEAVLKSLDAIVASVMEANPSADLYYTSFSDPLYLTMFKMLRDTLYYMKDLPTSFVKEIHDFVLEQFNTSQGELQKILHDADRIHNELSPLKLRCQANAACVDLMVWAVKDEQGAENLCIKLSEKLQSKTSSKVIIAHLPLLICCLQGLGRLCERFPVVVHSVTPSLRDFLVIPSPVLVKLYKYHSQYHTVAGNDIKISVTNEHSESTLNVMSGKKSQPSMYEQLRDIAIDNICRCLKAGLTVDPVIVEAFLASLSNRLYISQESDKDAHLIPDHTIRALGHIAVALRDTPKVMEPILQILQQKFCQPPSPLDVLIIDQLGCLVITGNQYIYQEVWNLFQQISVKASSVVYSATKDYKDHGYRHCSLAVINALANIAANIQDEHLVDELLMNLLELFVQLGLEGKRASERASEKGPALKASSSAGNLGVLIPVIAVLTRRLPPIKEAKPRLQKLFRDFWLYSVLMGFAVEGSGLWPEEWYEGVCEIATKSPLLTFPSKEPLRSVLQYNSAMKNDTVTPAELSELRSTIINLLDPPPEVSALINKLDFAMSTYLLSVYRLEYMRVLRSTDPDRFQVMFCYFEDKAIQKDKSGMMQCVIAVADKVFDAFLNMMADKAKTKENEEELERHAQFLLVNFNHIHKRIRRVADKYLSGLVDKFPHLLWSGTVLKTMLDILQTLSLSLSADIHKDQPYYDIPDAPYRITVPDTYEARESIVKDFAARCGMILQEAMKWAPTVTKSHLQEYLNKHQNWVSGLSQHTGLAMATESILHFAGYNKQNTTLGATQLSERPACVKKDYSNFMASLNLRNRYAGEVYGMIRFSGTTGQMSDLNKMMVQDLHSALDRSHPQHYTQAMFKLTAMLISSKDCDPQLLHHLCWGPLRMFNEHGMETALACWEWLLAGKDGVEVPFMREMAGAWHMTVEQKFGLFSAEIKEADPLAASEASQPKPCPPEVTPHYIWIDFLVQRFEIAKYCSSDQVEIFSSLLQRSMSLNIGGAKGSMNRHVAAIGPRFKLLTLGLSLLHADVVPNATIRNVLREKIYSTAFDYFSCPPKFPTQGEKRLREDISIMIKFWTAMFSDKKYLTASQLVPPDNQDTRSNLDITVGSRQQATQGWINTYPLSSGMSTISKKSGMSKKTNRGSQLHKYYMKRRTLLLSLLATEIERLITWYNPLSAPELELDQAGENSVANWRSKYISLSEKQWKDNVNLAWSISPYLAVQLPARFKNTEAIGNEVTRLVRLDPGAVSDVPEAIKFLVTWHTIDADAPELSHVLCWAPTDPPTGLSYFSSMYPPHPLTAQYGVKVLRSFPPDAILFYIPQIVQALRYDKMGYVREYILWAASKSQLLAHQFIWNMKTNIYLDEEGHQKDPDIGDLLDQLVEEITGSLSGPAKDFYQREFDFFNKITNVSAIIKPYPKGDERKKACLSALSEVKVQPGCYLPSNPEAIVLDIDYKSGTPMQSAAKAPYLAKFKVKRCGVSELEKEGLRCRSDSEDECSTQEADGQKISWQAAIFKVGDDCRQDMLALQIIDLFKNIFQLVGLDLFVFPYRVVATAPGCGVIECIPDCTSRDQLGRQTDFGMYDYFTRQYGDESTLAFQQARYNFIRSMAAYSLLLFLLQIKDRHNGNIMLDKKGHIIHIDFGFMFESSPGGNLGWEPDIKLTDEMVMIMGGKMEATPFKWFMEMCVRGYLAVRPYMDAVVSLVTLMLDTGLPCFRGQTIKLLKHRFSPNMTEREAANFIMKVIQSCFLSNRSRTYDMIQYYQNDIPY
In experiment [4] the target is Serine/threonine-protein kinase PAK 4 (Homo sapiens, UniProt O96013). The experiment in a line: Selectivity interaction (KinomeScan (DiscoverX)) EUB0001619a PAK4. Particulars: at 1 µM.
Chain of Serine/threonine-protein kinase PAK 4 (O96013 whole entry, looked up): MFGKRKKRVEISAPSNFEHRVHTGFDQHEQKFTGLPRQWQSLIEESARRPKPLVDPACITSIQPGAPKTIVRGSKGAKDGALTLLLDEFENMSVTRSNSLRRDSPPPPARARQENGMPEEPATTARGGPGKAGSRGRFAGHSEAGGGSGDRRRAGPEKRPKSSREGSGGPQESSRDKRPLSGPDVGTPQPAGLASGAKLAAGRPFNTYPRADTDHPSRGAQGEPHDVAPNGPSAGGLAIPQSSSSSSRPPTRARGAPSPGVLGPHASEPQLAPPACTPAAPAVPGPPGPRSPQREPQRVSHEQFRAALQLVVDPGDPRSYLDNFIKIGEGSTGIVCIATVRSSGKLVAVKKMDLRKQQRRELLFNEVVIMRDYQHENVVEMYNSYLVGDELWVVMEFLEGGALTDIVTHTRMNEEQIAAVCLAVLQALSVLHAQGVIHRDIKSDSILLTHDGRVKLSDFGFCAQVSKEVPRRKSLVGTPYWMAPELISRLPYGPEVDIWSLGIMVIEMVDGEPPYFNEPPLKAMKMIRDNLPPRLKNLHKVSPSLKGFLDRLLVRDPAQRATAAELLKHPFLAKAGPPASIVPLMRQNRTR

In general, IC50 refers to the concentration at which inhibition is half-maximal.

Where only a bound is given, the exact number is not on record here.

`Cc1cc([C@@H](C)Nc2ccccc2C(=O)O)c2nc(N3CCOCC3)cc(=O)n2c1` [AZD-6482] gave a % of control in experiment [1] of 100%.
Take `CC[C@@H]1[C@H](F)C(=O)N[C@@H]1COc1nccc2cc(C(N)=O)c(OC)cc12` [ZIMLOVISERTIB]: the % of inhibition in experiment [2] was -5.2%.
For `CCC(=O)N1CC[C@H](Nc2ncnc3c2CN(c2cnc(OC)c(C(F)(F)F)c2)CC3)C1` [LENIOLISIB], in experiment [3], the 50% inhibitory concentration (IC50) was > 9.1 µM.
Turning to `N#Cc1cccc(-c2c[nH]c3ncnc(N4CCOCC4)c23)c1`, the % of control in experiment [4] was found to be 100%.
